Like-named read-outs stand apart in the source and are kept apart here. One block for each compound: values may come before it.
Assays:
[1] = target: T1, NR1A/NR2B NMDA receptor subtype (Rattus norvegicus, UniProt P35439+Q00960); assay: [3H]Ifenprodil binding assay (IFPNR), rat forebrain membranes
T1 construct: buffy coat membrane fraction was prepared from frozen adult rat forebrains; tissue Zivic-Miller Laboratories, Inc; host or cells: adult rat forebrain membranes
Experimental: b. [^3H]Ifenprodil Binding Assay (IFPNR) Protocol:
Ifenprodil, [phenyl-^3H]-(specific activity, 66.2 Ci/mmol) was purchased from Dupont NEN Research Products (Boston, Mass.). Ifenprodil tartrate was purchased from Research Biochemicals International (Natick, Mass.). HEPES, glutamate and glycine were purchased from Sigma Chemical Co. (St. Louis, Mo.).
All buffers and reagents used in assay incubations or to dissolve drugs were prepared using water purified through a Milli-Q reverse osmosis system (Millipore Corp., Bedford, Mass.) and treated with UV emissions. Prior to use in the assays buffers were further filtered through a sterile Coming filtration unit (Coming Glass Works, Coming, N.Y.) containing a 0.2 micron filter. Buffer used to rinse the membranes on the assay filters was prepared with purified water, but was not refiltered and was stored no longer than 5 days. Stock solutions of the drugs (usually 10 mM) were dissolved in 20 mM HEPES-KOH buffer pH 7.4 (assay buffer) with the addition of 1 to 5 μL of glacial AcOH, if needed to keep them in solution. Eliprodil was used as the reference NMDA antagonist. A stock solution of eliprodil was prepared, and was buffered with the addition of 10% DMSO. All subsequent dilutions from the stock solution were made in buffer.
An extensively washed buffy coat membrane fraction was prepared from frozen adult rat forebrains (Zivic-Miller Laboratories, Inc., Zelienople, Pa.) as described by Coughenour L. L.; Cordon, J. J., J. Pharmacol. Exp. Ther., 1997;280:584-592, and stored at −80° C. On the day of the assay, pellets of the frozen membrane fractions were resuspended in 35 mL of assay buffer at pH 7.4 using a POLYTRON (Kinematica A. G. Company, Littau, Switzerland) mixer at setting 6. After incubation at 37° C. for 30 minutes in a shaking water bath, the homogenate was centrifuged 40,000×g for 10 minutes at 4° C. The pellets were resuspended in fresh buffer and centrifuged 3 more times before final suspension for use in the assay.
(iii) [^3H]Ifenprodil Binding protocol:
Triplicate incubations were carried out in a volume of 0.5 mL in 1.3 mL polypropylene tubes (Marsh Biomedical Products Inc, Rochester, N.Y.) for 2 hours at room temperature. Incubations contained invention compounds, membranes (100-200 μg protein) and 4 nM [^3H]-ifenprodil in 20 mM HEPES-KOH buffer, pH 7.4 (assay buffer). Assays were started by addition of the membranes. Bound radioligand was separated by filtration under reduced pressure using a TOMTEC Mach II, 96-well cell harvester (Tomtec Inc, Orange, Conn.). Filtration was through Whatman GF/B glass fiber filters (Whatman Ltd., Maidstone, England), which had been soaked for at least 15 minutes in 0.3% polyethylenimine and allowed to air dry. The filters were rinsed with 3 mL of ice cold assay buffer within 6 seconds. Air was allowed to pass through the filters for an additional 10 seconds to remove residual moisture. The filter mat was supported on a cold (−20° C.) TEFLON (E. I. Du Pont de Nemours and Company, Wilmington, Del.) coated support, and filters from individual wells were separated and placed in Mini Poly-Q vials (Becklman Instruments Inc, Fullerton, Calif.) and filled with 4 mL of scintillation cocktail (Beckman Ready Protein^+). Radioactivity retained on the filter was determined by liquid scintillation spectrophotometry. Nonspecific binding was defined as the binding in the presence of […] ifenprodil. Ninety percent of the total binding of ifenprodil was specific binding at the NR1A/NR2B NMDA receptor subtype active site (as opposed to binding at a remote site).
Binding curves were statistically analyzed for a best 1- or 2-site competition fit using GRAPHPAD PRISM software (GraphPad Software Inc, San Diego, Calif.), a computer program used to analyze and graph scientific data. The normalized data was fitted by nonweighted nonlinear regression to either [formula]
Control data was entered as 100%, and no parameters were constrained. […]

Male Wistar albino rats = assay: Formalin footpad test (FT); format: in vivo, rat; conditions: PO, statistically significant decrease in late-phase pain behaviour versus vehicle
Experimental: a. The Formalin Footpad Test (FT):
The FT model was used to test invention compounds for pain alleviating properties. The model produces a biphasic response in a test animal that results from a change in pain intensity over time. The FT model utilizes an injection of dilute formalin into the hindpaw of a rodent, which produces high intensity acute pain behaviors which are measured for the first 10 minutes post formalin injection (early phase responding). High intensity acute pain behaviors include rapid licking or biting of the injected hindpaw. The second phase is a prolonged period of lower intensity pain behaviors (late phase responding) which are measured from 11 to 45 minutes post-formalin injection.
Male Wistar albino rats (Harlan Sprague-Dawley Labs), weighing approximately 100 g at the time of testing, were used. Animals were group-housed and acclimated to the housing facility for 1 week prior to testing. Animals were maintained on a 12-hour/12-hour light/dark cycle and fed block rodent chow. From 4 to 8 animals were randomly assigned to either a vehicle-only dose group or a vehicle-plus invention compound treatment group on the day of testing.
The testing apparatus was a 16″×8″ box divided into two 8″×8″ testing chambers. Each testing chamber comprised a floor and 3 walls made of clear plastic mirrors, and a fourth wall which was clear plastic that allowed observation of animal behavior. The top of each chamber was covered with a metal screen during testing to prevent animals from climbing out of the chamber. Two animals were tested simultaneously in the adjoining boxes, but animals were unable to observe one another.
Animals were weighed and placed into holding cages (2 animals per cage) in the testing room prior to dosing. Following approximately 30 minutes of acclimation to the testing room, each pair of animals was administered orally (PO) by gavage a mixture of invention compound plus vehicle or vehicle alone. The treated animals were then placed in individual test chambers and allowed to acclimate to the chambers for at least 20 minutes. Then 50 μL of a 2.5% solution of formalin in vehicle was injected subcutaneously (SC) in the plantar surface of the left hindpaw from 30 to 120 minutes after administration of the invention compound. A session timer was started following the formalin injection, and the amount of time the animal spent licking or biting the injected paw was clocked with a hand-held stopwatch. The cumulative time spent engaging in a pain response was manually recorded at 5-minute intervals for 45 minutes post formalin injection. Early phase responding included Minutes 0 to 10, and late phase responding included Minutes 11 to 45. At the end of the testing period, animals were sacrificed using carbon dioxide. […]

[2] = Table 2, 4 nM [3H]-ifenprodil, read-out: IFPNR IC50 μm
[3] = Table 3, 4 nM [3H]-ifenprodil, read-out: IFPNR IC50
[4] = Table 4, 4 nM [3H]-ifenprodil, read-out: IFPNR IC50

T1 sequence (Q00960 27-1482, other chains not shown): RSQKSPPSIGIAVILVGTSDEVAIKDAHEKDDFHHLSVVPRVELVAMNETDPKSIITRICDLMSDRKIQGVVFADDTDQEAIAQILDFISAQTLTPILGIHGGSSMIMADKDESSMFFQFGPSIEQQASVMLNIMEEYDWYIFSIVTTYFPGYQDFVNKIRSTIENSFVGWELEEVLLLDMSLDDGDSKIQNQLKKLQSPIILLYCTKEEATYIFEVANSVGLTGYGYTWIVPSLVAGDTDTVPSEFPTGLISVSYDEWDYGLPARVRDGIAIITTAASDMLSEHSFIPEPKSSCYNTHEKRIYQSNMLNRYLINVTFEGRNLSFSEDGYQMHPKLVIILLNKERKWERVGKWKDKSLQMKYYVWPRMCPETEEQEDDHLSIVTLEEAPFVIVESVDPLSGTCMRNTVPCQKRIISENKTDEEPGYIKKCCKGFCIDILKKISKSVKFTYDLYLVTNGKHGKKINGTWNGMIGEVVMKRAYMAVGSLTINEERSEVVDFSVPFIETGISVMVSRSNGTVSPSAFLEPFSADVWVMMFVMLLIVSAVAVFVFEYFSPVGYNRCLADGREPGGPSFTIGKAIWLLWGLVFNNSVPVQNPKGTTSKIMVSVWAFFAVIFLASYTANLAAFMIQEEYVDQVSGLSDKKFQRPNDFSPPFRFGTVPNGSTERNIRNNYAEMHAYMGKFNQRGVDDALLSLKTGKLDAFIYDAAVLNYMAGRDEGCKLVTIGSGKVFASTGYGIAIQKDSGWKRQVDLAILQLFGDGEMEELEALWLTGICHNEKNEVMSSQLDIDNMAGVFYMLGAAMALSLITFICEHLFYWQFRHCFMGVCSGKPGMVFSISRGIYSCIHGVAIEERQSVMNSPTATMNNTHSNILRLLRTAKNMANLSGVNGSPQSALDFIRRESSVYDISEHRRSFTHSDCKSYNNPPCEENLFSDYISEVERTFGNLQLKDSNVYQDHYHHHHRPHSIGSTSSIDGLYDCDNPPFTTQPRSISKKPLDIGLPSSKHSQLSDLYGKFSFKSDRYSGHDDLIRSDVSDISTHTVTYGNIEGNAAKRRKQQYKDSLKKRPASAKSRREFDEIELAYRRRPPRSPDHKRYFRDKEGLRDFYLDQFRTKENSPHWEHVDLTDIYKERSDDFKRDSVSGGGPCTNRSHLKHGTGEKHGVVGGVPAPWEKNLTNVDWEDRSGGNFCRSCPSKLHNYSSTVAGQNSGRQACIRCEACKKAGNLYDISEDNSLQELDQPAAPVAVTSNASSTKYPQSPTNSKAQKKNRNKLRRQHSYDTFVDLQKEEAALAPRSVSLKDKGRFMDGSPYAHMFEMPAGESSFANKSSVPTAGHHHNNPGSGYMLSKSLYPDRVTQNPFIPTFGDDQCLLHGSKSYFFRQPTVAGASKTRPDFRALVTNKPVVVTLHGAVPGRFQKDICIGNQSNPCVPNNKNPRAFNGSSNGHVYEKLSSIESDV

IC50 ([1]; Table 1, 4 nM [3H]-ifenprodil, read-out: IFPNR (IC50 μM)): 0.016 µM
SMILES: O=c1[nH]c2ccc(C3=NOC(CN4CCC(Cc5ccc(F)cc5)CC4)C3)cc2o1 (single isomer, unassigned; (+)) [Example 4a, (+)-6-{5-[4-(4-fluorobenzyl)piperidin-1-ylmethyl]-4,5-dihydroisoxazol-3-yl}-3H-benzoxazol-2-one]
FT (mg/kg), active dose (Male Wistar albino rats; Table 1): <10 mg/kg

IC50 [1, 2]: 0.047 µM
SMILES: O=c1[nH]c2ccc(C3CC(CN4CCC(Cc5ccc(F)cc5)CC4)=NO3)cc2o1 (stereo not shown) [Example 5, 6-{3-[4-(4-Fluorobenzyl)piperidin-1-ylmethyl]-4,5-dihydroisoxazol-5-yl}-3H-benzoxazol-2-one]
FT (mg/kg), active dose (Male Wistar albino rats; Table 2): >30 mg/kg

IC50 [1, 2]: 0.499 µM
melting point: 237 to 244 °C
SMILES: O=c1[nH]c2ccc(-c3cc(CN4CCC(Cc5ccc(F)cc5)CC4)on3)cc2o1 [Example 15, 6-{5-[4-(4-Fluorobenzyl)piperidin-1-ylmethyl]isoxazol-3-yl}-3H-benzoxazol-2-one]

IC50 [1, 3]: > 1 µM
melting point: 210 to 213 °C
SMILES: O=C(C1CC(c2ccc3[nH]c(=O)oc3c2)=NO1)N1CCC(Cc2ccc(F)cc2)CC1 (stereo not shown) [Example 18, 6-{5-[4-(4-Fluorobenzyl)piperidine-1-carbonyl]-4,5-dihydroisoxazol-3-yl}-3H-benzoxazol-2-one]

IC50 [1, 2]: 0.011 µM
melting point: 82 to 86 °C
SMILES: CC1(CN2CCC(Cc3ccc(F)cc3)CC2)CC(c2ccc3[nH]c(=O)oc3c2)=NO1 (stereo not shown) [Example 21, 6-{5-[4-(4-Fluorobenzyl)piperidin-1-ylmethyl]-5-methyl-4,5-dihydroisoxazol-3-yl}-3H-benzoxazol-2-one]

IC50 [1, 2]: 0.788 µM
melting point: 188 to 194 °C
SMILES: O=C(O)C1(CN2CCC(Cc3ccc(F)cc3)CC2)CC(c2ccc3[nH]c(=O)oc3c2)=NO1 (stereo not shown) [Example 22, 5-[4-(4-Fluorobenzyl)piperidin-1-ylmethyl]-3-(2-oxo-2,3-dihydrobenzoxazol-6-yl)-4,5-dihydroisoxazole-5-carboxylic acid]

IC50 [1, 4]: 0.059 µM
melting point: 192 to 194 °C
SMILES: O=c1[nH]c2ccc(C3=NOC(CN4CCC(Oc5ccc(F)cc5)CC4)C3)cc2o1 (stereo not shown) [Example 27, 6-{5-[4-(4-Fluorophenoxy)piperidin-1-ylmethyl]-4,5-dihydroisoxazol-3-yl}-3-H-benzoxazol-2-one]

IC50 [1, 4]: 0.018 µM
melting point: 190 to 192 °C
SMILES: O=c1[nH]c2ccc(C3=NOC(CN4CCC(Sc5ccc(F)cc5)CC4)C3)cc2o1 (stereo not shown) [Example 28, 6-{5-[4-(4-Fluorophenylsulfanyl)piperidin-1-ylmethyl]-4,5-dihydroisoxazol-3-yl}-3H-benzoxazol-2-one]

IC50 [1, 4]: 0.759 µM
melting point: 188 to 190 °C
SMILES: O=C(c1ccc(F)cc1)C1CCN(CC2CC(c3ccc4[nH]c(=O)oc4c3)=NO2)CC1 (stereo not shown) [Example 30, 6-{5-[4-(4-Fluorobenzoyl)piperidin-1-ylmethyl]-4,5-dihydroisoxazol-3-yl}-3H-benzoxazol-2-one]

IC50 [1, 4]: > 1 µM
melting point: 125 to 134 °C
SMILES: CC(O)(c1ccc(F)cc1)C1CCN(CC2CC(c3ccc4[nH]c(=O)oc4c3)=NO2)CC1 (stereo not shown) [Example 32, 6-(5-{4-[1-(4-Fluorophenyl)-1-hydroxyethyl]piperidin-1-ylmethyl}-4,5-dihydroisoxazol-3-yl)-3H-benzoxazol-2-one]

IC50 ([1]; Table 5, 4 nM [3H]-ifenprodil, read-out: IFPNR IC50): 0.014 µM
melting point: 131 to 132 °C
SMILES: Cc1c(C2=NOC(CN3CCC(Cc4ccc(F)cc4)CC3)C2)cc2oc(=O)[nH]c2c1Cl (stereo not shown) [Example 33, 4-Chloro-6-{5-[4-(4-fluorobenzyl)piperidin-1-ylmethyl]-4,5-dihydroisoxazol-3-yl}-5-methyl-3H-benzoxazol-2-one]

IC50 [1, 3]: 0.28 µM
melting point: 214 to 217 °C
SMILES: O=c1[nH]c2ccc(C3=NOC(CN4CCC(c5ccc(F)cc5)CC4)C3)cc2o1 (stereo not shown) [Example 34, -{5-[4-(4-Fluorophenyl)piperidin-1-ylmethyl]-4,5-dihydroisoxazol-3-yl}-3H-benzoxazol-2-one]

SMILES: O=c1[nH]c2ccc(C3=NOC(CN4CCC(O)(c5ccccc5)CC4)C3)cc2o1 (stereo not shown) [Example 35]
IC50 [1, 3]: > 1 µM
melting point: 115 to 118 °C

IC50 [1, 3]: > 1 µM
melting point: 188 to 194 °C
SMILES: O=c1[nH]c2ccc(C3=NOC(CCN4CCC(c5ccc(F)cc5)CC4)C3)cc2o1 (stereo not shown) [Example 36, 6-(5-{2-[4-(4-Fluorophenyl)piperidin-1-yl]ethyl}-4,5-dihydroisoxazol-3-yl)-3H-benzoxazol-2-one]
